This passage reports IC50 and Ki results from patent US10793563B2, “GCN2 inhibitors and uses thereof” (Merck Patent GmbH, priority 2018, dated 2020).

Experiment [1] concerns the target intracellular GCN2 (phosphorylation of the GCN2 substrate eIF2α) (Homo sapiens (Human), UniProt Q9P2K8). The experiment can be described thus: GCN2 Cellular Inhibition Assay (AlphaScreen SureFire P-eIF2α Ser51, borrelidin-treated U2OS cells). The format is cell-based. The settings on record: 10 μM borrelidin, 1 h. A digest of the protocol: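 U2OS cells adhered overnight, then given compound (top 40 μM, 4-fold serial dilutions) plus 10 μM borrelidin for 1 h at 37 °C. Lysates assayed for eIF2α phospho-Ser51 by AlphaScreen SureFire; % inhibition versus borrelidin-only wells.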

A further experiment deals with GCN2 kinase (Homo sapiens (Human), UniProt Q9P2K8). The experiment is described as follows: GCN2 Enzyme Inhibition Assay (Transcreener ADP2 fluorescence polarization). The format is biochemical. The settings on record: 280 μM ATP, 200 μM (RS)7 peptide, 4 nM GCN2, 25° C.; for Ki: Ki(app). A digest of the protocol: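 Transcreener ADP2 fluorescence polarization detection of ADP from 4 nM GCN2 with (RS)7 substrate in 25 mM Tris-HCl pH 7.5, 50 mM NaCl, 10 mM MgCl2, 1 mM DTT. Compound pre-incubated with enzyme 10 min at 25 °C; reaction started by ATP, run 1 h at 25 °C. IC50 and Ki(app) by tight-binding fit.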
GCN2 kinase, sequence (Q9P2K8 whole entry): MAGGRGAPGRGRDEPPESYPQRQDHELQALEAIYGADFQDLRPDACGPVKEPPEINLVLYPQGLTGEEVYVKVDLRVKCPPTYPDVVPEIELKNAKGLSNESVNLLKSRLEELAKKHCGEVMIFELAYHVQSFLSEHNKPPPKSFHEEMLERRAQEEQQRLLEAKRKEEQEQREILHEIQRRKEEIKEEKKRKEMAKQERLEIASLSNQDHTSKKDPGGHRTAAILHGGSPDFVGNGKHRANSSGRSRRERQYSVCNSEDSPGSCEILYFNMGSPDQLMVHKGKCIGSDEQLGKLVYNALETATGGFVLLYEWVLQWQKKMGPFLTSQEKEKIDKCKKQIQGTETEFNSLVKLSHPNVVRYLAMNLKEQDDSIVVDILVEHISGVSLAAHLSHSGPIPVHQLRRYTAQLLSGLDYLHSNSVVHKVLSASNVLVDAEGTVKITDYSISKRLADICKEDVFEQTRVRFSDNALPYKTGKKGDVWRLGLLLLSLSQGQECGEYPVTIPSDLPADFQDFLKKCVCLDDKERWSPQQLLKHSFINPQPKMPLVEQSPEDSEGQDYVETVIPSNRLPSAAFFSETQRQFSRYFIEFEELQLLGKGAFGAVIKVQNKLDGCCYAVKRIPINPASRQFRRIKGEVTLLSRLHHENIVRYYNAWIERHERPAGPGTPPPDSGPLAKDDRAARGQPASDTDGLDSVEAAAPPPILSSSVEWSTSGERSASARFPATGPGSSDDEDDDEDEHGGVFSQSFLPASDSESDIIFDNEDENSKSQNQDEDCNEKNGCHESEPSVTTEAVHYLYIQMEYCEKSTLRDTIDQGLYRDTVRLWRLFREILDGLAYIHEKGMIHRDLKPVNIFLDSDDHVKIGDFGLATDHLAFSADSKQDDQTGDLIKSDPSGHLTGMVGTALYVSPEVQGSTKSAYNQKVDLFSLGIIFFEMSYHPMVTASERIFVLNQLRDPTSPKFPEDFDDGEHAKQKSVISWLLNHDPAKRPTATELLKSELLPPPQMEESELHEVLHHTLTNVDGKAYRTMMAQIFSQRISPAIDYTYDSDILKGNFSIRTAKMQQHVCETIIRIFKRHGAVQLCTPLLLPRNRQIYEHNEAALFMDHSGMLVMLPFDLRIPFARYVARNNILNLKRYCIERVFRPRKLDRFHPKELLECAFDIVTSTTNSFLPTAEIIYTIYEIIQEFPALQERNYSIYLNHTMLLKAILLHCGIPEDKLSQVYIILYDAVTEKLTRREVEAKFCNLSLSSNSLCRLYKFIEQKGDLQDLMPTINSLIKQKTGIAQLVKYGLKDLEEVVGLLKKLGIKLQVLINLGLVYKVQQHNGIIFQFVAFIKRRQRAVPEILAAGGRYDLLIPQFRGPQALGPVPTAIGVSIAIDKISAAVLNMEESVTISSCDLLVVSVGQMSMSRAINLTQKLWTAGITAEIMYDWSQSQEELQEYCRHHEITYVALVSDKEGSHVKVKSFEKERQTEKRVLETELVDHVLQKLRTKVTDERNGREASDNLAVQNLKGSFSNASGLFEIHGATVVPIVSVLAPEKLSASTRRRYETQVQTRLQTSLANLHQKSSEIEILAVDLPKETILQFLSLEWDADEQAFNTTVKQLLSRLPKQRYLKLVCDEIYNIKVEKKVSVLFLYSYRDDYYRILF

The mark [2] stands for this setting: phosphorylated eIF2α Ser51, read-out: GCN2 Biomarker (IC50).

Structures are written as SMILES. Read-outs that look alike come from different tables or passages of the source.

intracellular GCN2 (phosphorylation of the GCN2 substrate eIF2α), sequence (Q9P2K8 whole entry): as above

For the molecule `Cc1noc([C@H]2CN(c3ccnc(-c4cnc5ccc(Cl)cn45)n3)C[C@@H](C)O2)n1` [I-63], the concentration for half-maximal inhibition (IC50) in experiment [1] (setting [2]) is below 500 nM. On GCN2 kinase, this molecule yielded a Ki below 10 nM.
In experiment [1] (GCN2 Biomarker (IC50), phosphorylated eIF2α Ser51), `Cc1noc([C@H]2CN(c3ccnc(-c4cnc5ccc(Cl)cn45)n3)C[C@@H](C)O2)n1` [I-54] yielded a half-inhibitory concentration (IC50) of 500 to 5000 nM. This molecule also yielded a Ki at GCN2 kinase of 10 to 100 nM.
As for `O=C(C1CC(F)(F)C1)N1CCN(c2ccnc(-c3cnc4ccc(C(F)(F)F)cn34)n2)CC1c1cn[nH]c1` (stereo not drawn) [I-402, (2-(1H-pyrazol-4-yl)-4-(2-(6-(trifluoromethyl)imidazo[1,2-a]pyridin-3-yl)pyrimidin-4-yl)piperazin-1-yl)(3,3-difluorocyclobutyl)methanone], the IC50 was 500 to 5000 nM in experiment [1] (setting [2]) and 100 to 1000 nM against GCN2 kinase.
The like results for `Cc1[nH]ncc1C1N[C@@H](C)CN(c2nccc(-c3cnc4ccc(C(F)(F)F)cn34)n2)[C@H]1C` (stereo partly drawn) [I-172, 3-(2-((2S,5S)-2,5-dimethyl-3-(5-methyl-1H-pyrazol-4-yl)piperazin-1-yl)pyrimidin-4-yl)-6-(trifluoromethyl)imidazo[1,2-a]pyridine] were, in that order, below 500 nM and 10 to 100 nM.
Turning to `Cc1[nH]ncc1[C@H]1C[C@H](N=S(C)(C)=O)CN(c2ccnc(-c3cnc4ccc(C(F)(F)F)cn34)n2)C1` [I-344, dimethyl(((3 S,5R)-5-(5-methyl-1H-pyrazol-4-yl)-1-(2-(6-(trifluoromethyl)imidazo[1,2-a]pyridin-3-yl)pyrimidin-4-yl)piperidin-3-yl)imino)-λ6-sulfanone], the IC50 fell in the range of 500 to 5000 nM in experiment [1] (setting [2]) and 100 to 1000 nM at GCN2 kinase.
The like results for `Cc1cc(-c2cnc3ccc(Cl)cn23)nc(N2C[C@H](C)O[C@@H](c3c[nH]nc3C)C2)n1` [I-220, (2S,6S)-4-(4-(6-chloroimidazo[1,2-a]pyridin-3-yl)-6-methylpyrimidin-2-yl)-2-methyl-6-(5-methyl-1H-pyrazol-4-yl)morpholine] were, in that order, 500 to 5000 nM and 10 to 100 nM.
As to `Cc1cnc(N2C[C@H](C)C[C@@H](c3cn[nH]c3)C2)nc1-c1cnc2ccc(Cl)cn12` (stereo in doubt) [I-184, 6-chloro-3-(5-methyl-2-((3R,5S)-3-methyl-5-(1H-pyrazol-4-yl)piperidin-1-yl)pyrimidin-4-yl)imidazo[1,2-a]pyridine], the IC50 is below 500 nM in experiment [1] (setting [2]) and 10 to 100 nM at GCN2 kinase.
As to `C[C@@H]1[C@H](c2cn[nH]c2)NCCN1c1ccnc(-c2cnc3ccc(C(F)(F)F)cn23)n1` [I-537, 4-[(2R,3 S)-2-methyl-3-(1H-pyrazol-4-yl)piperazin-1-yl]-2-[6-(trifluoromethyl)imidazo[1,2-a]pyridin-3-yl]pyrimidine], the IC50 is below 500 nM in experiment [1] (setting [2]) and below 10 nM against GCN2 kinase.
The like results for `FC(F)(F)c1ccc2ncc(-c3nccc(N4CCN(Cc5cnc[nH]5)C(c5cn[nH]c5)C4)n3)n2c1` (stereo not drawn) [I-385, 3-(4-(4-((1H-imidazol-5-yl)methyl)-3-(1H-pyrazol-4-yl)piperazin-1-yl)pyrimidin-2-yl)-6-(trifluoromethyl)imidazo[1,2-a]pyridine] were, in that order, 500 to 5000 nM and below 10 nM.
Turning to `CC1CC(CS(C)(=N)=O)C(C)N(c2ccnc(-c3cnc4ccc(Cl)cn34)n2)C1` (stereo not drawn) [I-46, ((1-(2-(6-Chloroimidazo[1,2-a]pyridin-3-yl)pyrimidin-4-yl)-2,5-dimethylpiperidin-3-yl)methyl)(imino)(methyl)-λ^6-sulfanone], the half-maximal inhibitory concentration (IC50) in experiment [1] (setting [2]) fell in the range of 500 to 5000 nM. The Ki at GCN2 kinase lay in the range of 10 to 100 nM.
On to `O=C(CCn1ccnc1)N1CCN(c2ccnc(-c3cnc4ccc(C(F)(F)F)cn34)n2)CC1c1cn[nH]c1` (stereo not drawn) [I-422, 1-(2-(1H-pyrazol-4-yl)-4-(2-(6-(trifluoromethyl)imidazo[1,2-a]pyridin-3-yl)pyrimidin-4-yl)piperazin-1-yl)-3-(1H-imidazol-1-yl)propan-1-one], for which the IC50 in experiment [1] (setting [2]) is above 5000 nM; at GCN2 kinase it was 10 to 100 nM.
The like results for `O=C(C1CC1)N1CCN(c2ccnc(-c3cnc4ccc(C(F)(F)F)cn34)n2)CC1c1cn[nH]c1` (stereo not drawn) [I-397, (2-(1H-pyrazol-4-yl)-4-(2-(6-(trifluoromethyl)imidazo[1,2-a]pyridin-3-yl)pyrimidin-4-yl)piperazin-1-yl)(cyclopropyl)methanone] were, in that order, 500 to 5000 nM and 10 to 100 nM.
With `C[C@H]1CN(c2nccc(-c3cnc4ccc(C(F)F)cn34)n2)C[C@@H](CNS(C)(=O)=O)C1(F)F` (stereo in doubt) [I-41, N-[[-1-[4-[6-(Difluoromethyl)imidazo[1,2-a]pyridin-3-yl]pyrimidin-2-yl]-4,4-difluoro-5-methyl-3-piperidyl]methyl]methanesulfonamide], the IC50 in experiment [1] (setting [2]) lay in the range of 500 to 5000 nM. On GCN2 kinase, this molecule gave a Ki below 10 nM.
Regarding `Cc1cnc(N2C[C@@H](C)O[C@@H](c3cn[nH]c3C)C2)nc1-c1cnc2ccc(Cl)cn12` [I-204, (2R,6S)-4-(4-(6-chloroimidazo[1,2-a]pyridin-3-yl)-5-methylpyrimidin-2-yl)-2-methyl-6-(5-methyl-1H-pyrazol-4-yl)morpholine], the IC50 in experiment [1] (setting [2]) is 500 to 5000 nM; on GCN2 kinase, 10 to 100 nM.
Take `NS(=O)(=O)c1ccc2ncc(-c3nccc(N4CCCC(c5cn[nH]c5)C4)n3)n2c1` (stereo not drawn) [I-320, 3-(4-(3-(1H-pyrazol-4-yl)piperidin-1-yl)pyrimidin-2-yl)imidazo[1,2-a]pyridine-6-sulfonamide]: the half-inhibitory concentration (IC50) lay within 500 to 5000 nM in experiment [1] (setting [2]) and 10 to 100 nM against GCN2 kinase.
The like results for `COc1cc(-c2cnc3ccc(Cl)cn23)nc(N2C[C@@H](C)C[C@@H](c3cn[nH]c3)C2)n1` [I-281, 6-chloro-3-(6-methoxy-2-((3S,5S)-3-methyl-5-(1H-pyrazol-4-yl)piperidin-1-yl)pyrimidin-4-yl)imidazo[1,2-a]pyridine] were, in that order, below 500 nM and 10 to 100 nM.
As for `CC1CC(CS(C)(=N)=O)C(C)N(c2ccnc(-c3cnc4ccc(Cl)cn34)n2)C1` (stereo not drawn) [I-47, ((1-(2-(6-Chloroimidazo[1,2-a]pyridin-3-yl)pyrimidin-4-yl)-2,5-dimethylpiperidin-3-yl)methyl)(imino)(methyl)-λ^6-sulfanone], the 50% inhibitory concentration (IC50) in experiment [1] (setting [2]) was 500 to 5000 nM. Besides, the Ki at GCN2 kinase is below 10 nM.
As to `O=C(c1cnon1)N1CCN(c2ccnc(-c3cnc4ccc(C(F)(F)F)cn34)n2)CC1c1cn[nH]c1` (stereo not drawn) [I-441, (2-(1H-pyrazol-4-yl)-4-(2-(6-(trifluoromethyl)imidazo[1,2-a]pyridin-3-yl)pyrimidin-4-yl)piperazin-1-yl)(1,2,5-oxadiazol-3-yl)methanone], the concentration for half-maximal inhibition (IC50) in experiment [1] (setting [2]) was above 5000 nM; against GCN2 kinase, 10 to 100 nM.
As to `C[C@H]1CN(c2nccc(-c3cnc4ccc(Cl)cn34)n2)C[C@H](c2cn[nH]c2)O1` [I-246, (2S,6S)-4-(4-(6-chloroimidazo[1,2-a]pyridin-3-yl)pyrimidin-2-yl)-2-methyl-6-(1H-pyrazol-4-yl)morpholine], the results for the concentration for half-maximal inhibition (IC50) (in experiment [1] (setting [2]); at GCN2 kinase) were 500 to 5000 nM and 10 to 100 nM, respectively.
The like results for `NC(=O)C1CN(c2ccnc(-c3cnc4ccc(C(F)(F)F)cn34)n2)CCN1` (stereo not drawn) [I-217, 4-(2-(6-(trifluoromethyl)imidazo[1,2-a]pyridin-3-yl)pyrimidin-4-yl)piperazine-2-carboxamide] were, in that order, 500 to 5000 nM and 10 to 100 nM.
Take `CC(=O)N1CCN(c2cccc(-c3cnc4ccc(C(F)(F)F)cn34)n2)CC1` [I-11, 1-[4-[6-[6-(Trifluoromethyl)imidazo[1,2-a]pyridin-3-yl]-2-pyridyl]piperazin-1-yl]ethanone]: the IC50 in experiment [1] (setting [2]) was above 5000 nM. The molecule further returned a Ki on GCN2 kinase of 10 to 100 nM.
With `C[C@@H]1CN(c2ccnc(-c3cnc4ccc(C(F)(F)F)cn34)n2)C[C@H](C)N1C(=O)c1ccn(C2CC2)n1` [I-440, (1-cyclopropyl-1H-pyrazol-3-yl)(cis-2,6-dimethyl-4-(2-(6-(trifluoromethyl)imidazo[1,2-a]pyridin-3-yl)pyrimidin-4-yl)piperazin-1-yl)methanone], the concentration for half-maximal inhibition (IC50) was above 5000 nM in experiment [1] (setting [2]) and 100 to 1000 nM at GCN2 kinase.
The like results for `c1ccc(Oc2ccc3ncc(-c4nccc(N5CCC[C@@H](c6cn[nH]c6)C5)n4)n3c2)cc1` [I-399] were, in that order, 500 to 5000 nM and 10 to 100 nM.
For the molecule `Cc1noc([C@H]2CN(c3ccnc(-c4cnc5ccc(C(F)(F)F)cn45)n3)C[C@@H](C)O2)n1` (stereo in doubt) [I-90, 2-methyl-6-(3-methyl-1,2,4-oxadiazol-5-yl)-4-{2-[6-(trifluoromethyl)imidazo[1,2-a]pyridin-3-yl]pyrimidin-4-yl}morpholine], the IC50 in experiment [1] (setting [2]) was below 500 nM. The molecule further yielded a Ki at GCN2 kinase below 10 nM.
The like results for `Clc1ccc2ncc(-c3nccc(N4CCC(c5cn[nH]c5)C4)n3)n2c1` (stereo not drawn) [I-27, 6-Chloro-3-[4-[3-(1H-pyrazol-4-yl)pyrrolidin-1-yl]pyrimidin-2-yl]imidazo[1,2-a]pyridine] were, in that order, below 500 nM and below 10 nM.
For the molecule `O=C(CO)N1CCN(c2ccnc(-c3cnc4ccc(C(F)(F)F)cn34)n2)CC1c1cn[nH]c1` (stereo not drawn) [I-421, 1-(2-(1H-pyrazol-4-yl)-4-(2-(6-(trifluoromethyl)imidazo[1,2-a]pyridin-3-yl)pyrimidin-4-yl)piperazin-1-yl)-2-hydroxyethan-1-one], the IC50 was above 5000 nM in experiment [1] (setting [2]) and 10 to 100 nM against GCN2 kinase.
The like results for `CC1CN(c2ccnc(-c3cnc4ccc(C(F)(F)F)cn34)n2)CC(C)N1C1CC1` (stereo not drawn) [I-392, 3-(4-(4-cyclopropyl-3,5-dimethylpiperazin-1-yl)pyrimidin-2-yl)-6-(trifluoromethyl)imidazo[1,2-a]pyridine] were, in that order, 500 to 5000 nM and 100 to 1000 nM.
